{"source": "patent US7348294B2", "about": "“Adsorbent and method for adsorbing cardiac glycoside” (Kaneka Corporation, priority 2000, dated 2008)", "origin": "cited, not measured here", "conditions": "octanol-water; ligand before immobilization", "data": [{"smiles": "CCCCN", "note": "[n-butylamine]", "values": [{"measurement": "log P", "value": 0.97}]}]}
